According to ChEMBL document CHEMBL4665624, “Synthesis of 5-(4-(1H-phenanthro[9,10-d]imidazol-2-yl)benzylidene)thiazolidine-2,4-dione as promising DNA and serum albumin-binding agents and evaluation of antitumor activity” (Eur J Med Chem, 2019):
Active and inactive are the calls of the source. No cut-off for these calls is given here.

Legend:
HEK293 [1] = assay: Cytotoxicity against human HEK293 assessed as reduction in cell viability at 0.1 uM after 48 hrs by MTT assay; type: cell-based; details: hek293, 48 h
BT-549 = assay: Antitumor activity against human BT-549 cells assessed as cell growth inhibition at 10 uM incubated for 48 hrs by sulforhodamine B assay; type: functional; details: read-out: GI
UACC-62 = assay: Antitumor activity against human UACC-62 cells assessed as cell growth inhibition at 10 uM incubated for 48 hrs by sulforhodamine B assay; type: functional; details: read-out: GI
MDA-MB-435 = assay: Antitumor activity against human MDA-MB-435 cells assessed as cell growth inhibition at 10 uM incubated for 48 hrs by sulforhodamine B assay; type: functional; details: read-out: GI
SF-268 = assay: Antitumor activity against human SF268 cells assessed as cell growth inhibition at 10 uM incubated for 48 hrs by sulforhodamine B assay; type: functional; details: read-out: GI
Albumin [2] = molecular target: T1, Albumin (Bos taurus, UniProt P02769); assay: Binding affinity to bovine serum albumin assessed as binding constant at 298K by fluorescence emission spectrum analysis; type: ADME, cell-free; details: cattle
786-0 = assay: Antitumor activity against human 786-0 cells assessed as cell growth inhibition at 10 uM incubated for 48 hrs by sulforhodamine B assay; type: functional; details: read-out: GI
Calf thymus DNA [3] = assay: Binding affinity to calf thymus DNA assessed as bimolecular quenching constant by ethidium bromide competitive displacement assay; type: nucleic-acid assay; details: Bos taurus
U-251 = assay: Antitumor activity against human U251 cells assessed as cell growth inhibition at 10 uM incubated for 48 hrs by sulforhodamine B assay; type: functional; details: read-out: GI
Calf thymus DNA [4] = assay: Binding affinity to calf thymus DNA assessed as quenching in emission band at 600 nm by ethidium bromide competitive displacement assay; type: nucleic-acid assay; details: Bos taurus
Calf thymus DNA [5] = assay: Binding affinity to calf thymus DNA assessed as hypochromic effect by measuring decrease in intensity of absorption band at 398 nm at 20 uM by UV-Vis absorption spectrophotometric method; details: Bos taurus
SK-MEL-28 = assay: Antitumor activity against human SK-MEL-28 cells assessed as cell growth inhibition at 10 uM incubated for 48 hrs by sulforhodamine B assay; type: functional; details: read-out: GI
HEK293 [6] = assay: Cytotoxicity against human HEK293 assessed as reduction in cell viability at 100 uM after 48 hrs by MTT assay; type: cell-based; details: hek293, 48 h
Albumin [7] = molecular target: T1, Albumin; assay: Binding affinity to bovine serum albumin assessed as appearance of new fluorescence band at 510 nm at 0-12 uM by fluorescence emission spectrum analysis; type: ADME, cell-free; details: cattle
NCI-H522 = assay: Antitumor activity against human NCI-H522 cells assessed as cell growth inhibition at 10 uM incubated for 48 hrs by sulforhodamine B assay; type: functional; details: read-out: GI
Albumin [8] = molecular target: T1, Albumin; assay: Binding affinity to bovine serum albumin assessed as hydrogen bonding interaction by measuring change in enthalpy at 298K by thermodynamic based analysis; type: ADME, cell-free; details: cattle
HEK293 [9] = assay: Cytotoxicity against human HEK293 assessed as reduction in cell viability at 10 uM after 48 hrs by MTT assay; type: cell-based; details: hek293, 48 h
CCRF-CEM = assay: Antitumor activity against human CCRF-CEM cells assessed as cell growth inhibition at 10 uM incubated for 48 hrs by sulforhodamine B assay; type: functional; details: read-out: GI
Albumin [10] = molecular target: T1, Albumin; assay: Binding affinity to bovine serum albumin assessed as formation of new absorption band at 400 nm at 0-10 uM by UV-vis absorption spectral titration analysis; type: ADME, cell-free; details: cattle
MCF7 = assay: Antitumor activity against human MCF7 cells assessed as cell growth inhibition at 10 uM incubated for 48 hrs by sulforhodamine B assay; type: functional; details: read-out: GI
Albumin [11] = molecular target: T2, Albumin (Homo sapiens, UniProt P02768); assay: Binding affinity to human serum albumin assessed as appearance of new absorption band at 400 nm at 0-7 uM by UV-Vis absorption spectroscopy; type: ADME, cell-free; details: 0.4 µM
Albumin [12] = molecular target: T1, Albumin; assay: Binding affinity to bovine serum albumin assessed as quenching constant at 308K by fluorescence emission spectrum analysis; type: ADME, cell-free; details: cattle
HL-60(TB) = assay: Antitumor activity against human HL-60(TB) cells assessed as cell growth inhibition at 10 uM incubated for 48 hrs by sulforhodamine B assay; type: functional; details: read-out: GI
DNA [13] = assay: Binding affinity to human DNA in blood assessed as quenching constant by fluorescence emission spectrum analysis; type: tissue-based
Albumin [14] = molecular target: T1, Albumin; assay: Binding affinity to bovine serum albumin assessed as spontaneous interaction by measuring change in gibbs free energy at 298K by thermodynamic based analysis; type: ADME, cell-free; details: cattle
Calf thymus DNA [15] = assay: Binding affinity to calf thymus DNA assessed as DNA intercalation by measuring decrease in intensity of CD band at 250 nm at 1 uM by CD spectroscopy; type: nucleic-acid assay; details: Bos taurus
A549 = assay: Cytotoxicity against human A549/ATCC assessed as reduction in cell viability after 48 hrs by MTT assay; type: functional, cell-based; details: A549, 48 h
M14 = assay: Antitumor activity against human M14 cells assessed as cell growth inhibition at 10 uM incubated for 48 hrs by sulforhodamine B assay; type: functional; details: read-out: GI
Albumin [16] = molecular target: T1, Albumin; assay: Binding affinity to bovine serum albumin assessed as Stern-Volmer quenching constant at 308K by fluorescence emission spectrum analysis; type: ADME, cell-free; details: cattle
Albumin [17] = molecular target: T2, Albumin; assay: Binding affinity to human serum albumin assessed as decrease in emission peak intensity band at 348 nm at 0-13 uM by fluorescence emission spectroscopy; type: ADME, cell-free; details: 0.348 µM
DNA [18] = assay: Binding affinity to human DNA in blood assessed as DNA intercalation by measuring increase in fluorescence emission intensity at 498 nm at 20 uM by fluorescence emission spectral analysis; type: tissue-based
HCC 2998 = assay: Antitumor activity against human HCC2998 cells assessed as cell growth inhibition at 10 uM incubated for 48 hrs by sulforhodamine B assay; type: functional; details: read-out: GI
Malme-3M = assay: Antitumor activity against human MALME-3M cells assessed as cell growth inhibition at 10 uM incubated for 48 hrs by sulforhodamine B assay; type: functional; details: read-out: GI
NCI-H23 = assay: Antitumor activity against human NCI-H23 cells assessed as cell growth inhibition at 10 uM incubated for 48 hrs by sulforhodamine B assay; type: functional; details: read-out: GI
COLO 205 = assay: Antitumor activity against human COLO205 cells assessed as cell growth inhibition at 10 uM incubated for 48 hrs by sulforhodamine B assay; type: functional; details: read-out: GI
K562 = assay: Antitumor activity against human K562 cells assessed as cell growth inhibition at 10 uM incubated for 48 hrs by sulforhodamine B assay; type: functional; details: read-out: GI
Albumin [19] = molecular target: T1, Albumin; assay: Binding affinity to bovine serum albumin assessed as spontaneous interaction by measuring change in gibbs free energy at 308K by thermodynamic based analysis; type: ADME, cell-free; details: cattle
DNA [20] = assay: Binding affinity to human DNA in blood assessed as DNA intercalation by measuring binding constant by UV-Vis spectral titration analysis; type: tissue-based
NCI-H226 = assay: Antitumor activity against human NCI-H226 assessed as cell growth inhibition at 10 uM incubated for 48 hrs by sulforhodamine B assay; type: functional; details: read-out: GI
Albumin [21] = molecular target: T1, Albumin; assay: Binding affinity to bovine serum albumin assessed as Stern-Volmer quenching constant at 318K by fluorescence emission spectrum analysis; type: ADME, cell-free; details: cattle
Albumin [22] = molecular target: T2, Albumin; assay: Binding affinity to human serum albumin assessed as quenching constant by fluorescence emission spectroscopy; type: ADME, cell-free
Calf thymus DNA [23] = assay: Binding affinity to calf thymus DNA assessed as DNA intercalation by measuring increase in intensity of CD band at 281 nm at 1 uM by CD spectroscopy; type: nucleic-acid assay; details: Bos taurus
OVCAR-8 = assay: Antitumor activity against human OVCAR-8 cells assessed as cell growth inhibition at 10 uM incubated for 48 hrs by sulforhodamine B assay; type: functional; details: read-out: GI

T2 sequence (P02768 whole entry): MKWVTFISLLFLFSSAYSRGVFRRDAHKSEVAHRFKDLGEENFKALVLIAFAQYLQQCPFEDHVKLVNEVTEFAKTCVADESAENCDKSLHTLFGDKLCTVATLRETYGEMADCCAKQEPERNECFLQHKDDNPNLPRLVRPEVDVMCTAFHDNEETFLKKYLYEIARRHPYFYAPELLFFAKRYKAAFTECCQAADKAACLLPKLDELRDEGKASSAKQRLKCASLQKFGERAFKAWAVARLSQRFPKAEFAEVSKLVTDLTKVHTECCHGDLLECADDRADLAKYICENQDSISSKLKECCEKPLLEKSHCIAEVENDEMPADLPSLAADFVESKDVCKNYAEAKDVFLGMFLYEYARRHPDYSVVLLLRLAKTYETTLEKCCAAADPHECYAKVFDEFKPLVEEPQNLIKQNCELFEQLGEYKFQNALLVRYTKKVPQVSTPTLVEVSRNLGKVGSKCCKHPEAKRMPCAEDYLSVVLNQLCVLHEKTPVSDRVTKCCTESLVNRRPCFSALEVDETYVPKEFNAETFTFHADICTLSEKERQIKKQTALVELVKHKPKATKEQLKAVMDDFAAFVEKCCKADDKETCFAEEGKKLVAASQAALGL
T1 sequence (P02769 whole entry): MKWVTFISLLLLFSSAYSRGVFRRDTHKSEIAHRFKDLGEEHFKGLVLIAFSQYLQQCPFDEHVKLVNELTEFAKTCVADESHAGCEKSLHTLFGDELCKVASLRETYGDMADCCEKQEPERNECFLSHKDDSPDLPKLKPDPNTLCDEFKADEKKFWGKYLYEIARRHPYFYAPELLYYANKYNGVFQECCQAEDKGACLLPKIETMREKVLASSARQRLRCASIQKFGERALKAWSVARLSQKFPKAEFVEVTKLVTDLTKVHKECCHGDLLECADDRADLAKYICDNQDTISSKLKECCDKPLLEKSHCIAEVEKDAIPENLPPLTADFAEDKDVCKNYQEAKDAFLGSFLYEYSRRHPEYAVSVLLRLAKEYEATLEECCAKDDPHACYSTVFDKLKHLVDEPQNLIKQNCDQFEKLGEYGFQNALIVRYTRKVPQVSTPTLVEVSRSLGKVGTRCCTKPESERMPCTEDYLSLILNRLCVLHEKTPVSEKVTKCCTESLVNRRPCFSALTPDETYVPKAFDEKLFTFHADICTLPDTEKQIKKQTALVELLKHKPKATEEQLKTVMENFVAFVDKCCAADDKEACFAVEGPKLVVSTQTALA

## O=C1NC(=O)/C(=C/c2ccc(-c3nc4c5ccccc5c5ccccc5c4[nH]3)cc2)S1
HEK293 [1]
  Activity: 5%
BT-549
  inhibition of growth at 10 µM: 63.7%
UACC-62
  inhibition of growth at 10 µM: 30.3%
MDA-MB-435
  inhibition of growth at 10 µM: 67.4%
SF-268
  inhibition of growth at 10 µM: 12.3%
Albumin [2]
  Kb: 4.06 10^6/M
786-0
  inhibition of growth at 10 µM: 48%
Calf thymus DNA [3]
  Kq: 6.53 10^12/M/s
U-251
  inhibition of growth at 10 µM: 30.3%
Calf thymus DNA [4]
  Activity: Active
Calf thymus DNA [5]
  Activity: Active
SK-MEL-28
  inhibition of growth at 10 µM: 19.1%
HEK293 [6]
  Activity: 15%
Albumin [7]
  Activity: Active
NCI-H522
  inhibition of growth at 10 µM: 47.6%
Albumin [8]
  deltaH: -2.92 kcal/mol
HEK293 [9]
  Activity: 9%
CCRF-CEM
  inhibition of growth at 10 µM: 65.2%
Albumin [10]
  Activity: Active
MCF7
  inhibition of growth at 10 µM: 46.1%
Albumin [11]
  Activity: Active
Albumin [12]
  Kq: 8.15 10^13/M/sec
HL-60(TB)
  inhibition of growth at 10 µM: 57.7%
DNA [13]
  Kq: 3.46 10^11/M/s
Albumin [14]
  deltaG: -9 kcal/mol
Calf thymus DNA [15]
  Activity: Active
A549
  IC50: 1700 nM
M14
  inhibition of growth at 10 µM: 47.9%
Albumin [16]
  KSV: 8.15 10^5/M
Albumin [17]
  Activity: Active
DNA [18]
  Activity: Active
HCC 2998
  inhibition of growth at 10 µM: < 10%
Malme-3M
  inhibition of growth at 10 µM: 14.8%
NCI-H23
  inhibition of growth at 10 µM: 29%
COLO 205
  inhibition of growth at 10 µM: < 10%
K562
  inhibition of growth at 10 µM: 68.1%
Albumin [19]
  deltaG: -9.21 kcal/mol
DNA [20]
  Kb: 5.24 10^4/M
NCI-H226
  inhibition of growth at 10 µM: < 10%
Albumin [21]
  KSV: 3.51 10^5/M
Albumin [22]
  Kq: 3.01 10^14/M/s
Calf thymus DNA [23]
  Activity: Active
OVCAR-8
  inhibition of growth at 10 µM: 21.7%
